Here are results for 1 compound from PMC11229439 (GeroScience, 2023).

This test deals with T1, cystathionine γ-lyase (CGL) (Rattus norvegicus, UniProt P18757).
T1 construct: gene Cth
Kind of test: homoserine γ-elimination assay (2-oxobutanoate), Dixon plot. In kind it is biochemical.

pKi: −log10 of the molar value.

T1 sequence (P18757 whole entry): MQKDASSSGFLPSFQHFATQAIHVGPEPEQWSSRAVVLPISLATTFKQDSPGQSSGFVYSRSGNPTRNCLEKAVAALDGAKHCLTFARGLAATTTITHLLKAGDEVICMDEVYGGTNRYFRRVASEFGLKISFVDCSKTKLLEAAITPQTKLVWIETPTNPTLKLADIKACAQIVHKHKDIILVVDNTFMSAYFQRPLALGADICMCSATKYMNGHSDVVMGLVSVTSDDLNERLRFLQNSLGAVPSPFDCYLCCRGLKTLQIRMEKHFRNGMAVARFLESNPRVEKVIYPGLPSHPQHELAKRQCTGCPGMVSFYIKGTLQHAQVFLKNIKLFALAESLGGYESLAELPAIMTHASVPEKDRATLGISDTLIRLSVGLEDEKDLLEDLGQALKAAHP

With `N[C@@H](CS)C(=O)O` [cysteine], the pKi (commonly the Ki on a negative log10 scale, so that one unit is a factor of ten) is 3.28.
